Measured values from US7183316B2, “Treatment of HPV caused diseases” (Cornell Research Foundation, Inc., priority 2001, dated 2007).

Assays:
HPV16 E6 mRNA = experiment: Northern blotting for HPV16 E6 mRNA in CaSki cells; assay type: cell-based; conditions: for levels of HPV16 E6 mRNA (Northern blot): CaSki cells, 24 hours incubation, concentration series in μM; for HPV16 E6 mRNA (Northern blot): Background Example 7: CaSki cells, 24 hours, curcumin 5 μM, resveratrol 15 μM, ciglitazone 20 μM, 15d-PGJ2 15 μM
Experimental: (§1) Celebrex™ at concentrations of 0, 0.1, 0.25, 0.5, 1.0, 2.5 and 5.0 μM was incubated with CaSki cell (3.0×10^6 in a 10 cm diameter dish) for 24 hours.
Curcumin (5 μM), resveratrol (15 μM), ciglitazone (20 μM) or 15d-PGJ2 (15 μM) were incubated with CaSki cells (3×10^6 in a 10 cm diameter dish) for 24 hours.
Northern blot testing was carried our for HPV16 E6 mRNA.

HPV16 E7 protein = experiment: Western blotting for HPV16 E7 protein in CaSki cells; assay type: cell-based; conditions: 24 hours incubation, concentration series in μM
Experimental: (§2) Ciglitazone was incubated with CaSki cells (prototypic cervical cancer cells known to be infected with HPV16). The number of CaSki cells was 3×10^6 in a 10 cm diameter dish. Incubation were carried out for 24 hours with 0, 1, 5, 10 and 20 μM ciglitazone.
(§3) Western blotting was carried out to determine levels of HPV16 E7 protein. […] Northern blotting was carried out to determine levels of HPV16 E7 mRNA. […] Nuclear run-off testing was carried out to determine level of gene transcription.
as §1

[1] = tested on: HPV mediated cutaneous warts; experiment: Topical treatment of patient with HPV mediated cutaneous warts; assay type: in vivo, human; conditions: ointment containing 5%, twice a day, three months
Excerpt: A child presents to a local dermatologist because of small cutaneous growths on the hand. A diagnosis of HPV mediated cutaneous warts is made. The patient is instructed to apply an ointment containing 5% rosiglitazone to the affected areas twice a day. […] The same results occur with an ointment containing 5% resveratrol instead of the ointment containing rosiglitazone.

HPV16 E7 mRNA [2] = experiment: EGF-mediated induction of HPV16 E7 mRNA in CaSki cells (Northern blot); assay type: cell-based; conditions: for EGF-mediated induction of HPV16 E7 mRNA (Northern blot): Background Example 5: EGF 10 nanograms/ml, 50 or 100 μM sulindac sulfide, 15 μM ciglitazone, 15 μM 15d-PGJ2; for EGF-mediated induction of HPV16 E7 (Northern blot, mRNA): Background Example 6: EGF 10 nanograms/ml, 100 μM NSAID, 25 μM 15d-PGJ2
Experimental: Epidermal growth factor at 10 nanograms/ml was added to CaSki cells (3×10^6 in a 10 cm diameter dish) together with 50 μM sulindac sulfide or 100 μM sulindac sulfide or 15 μM ciglitazone or 15 μM 15d-PGJ2.
Northern blot testing was carried out for HPV16 E7 mRNA.
Epidermal growth factor (EGF) at 10 nanograms/ml was incubated with CaSki cells (3×10^6 in a 10 cm diameter dish) and 100 μM ibuprofen, 100 μM piroxicam, 100 μM S-naproxen, 100 μM aspirin, 100 μM sulindac sulfone, 100 μM sulindac sulfide, 100 μM naproxen, 100 μM indomethacin, 100 μM flufenamic acid and for comparison purposes 25 μM 15d-PGJ2.

HPV16 [3] = experiment: Treatment of patient with cervical intraepithelial neoplasia; assay type: in vivo, human; conditions: 25 mg orally each day for six months
Experimental: A person presents to their gynecologist for evaluation. […] On biopsy, the patient is found to have cervical intraepithelial neoplasia. HPV16 is detected. Treatment with Vioxx™ 25 mg orally each day is begun and given for six months. […] The Vioxx™ is discontinued with no recurrence of cervical intraepithelial neoplasia.

HPV16 E7 mRNA [4] = experiment: Northern blotting for HPV16 E7 mRNA in CaSki cells; assay type: cell-based; conditions: 24 hours incubation, concentration series in μM
Experimental: as §2, §3
NS-398 at concentrations of 0, 10, 20, 40, 60, 100, 250 and 500 μM was incubated with CaSki cells (3×10^6 in a 10 cm diameter dish) for 24 hours.
Northern blotting was carried out to determine HPV16 E7 mRNA levels in each case.

[5] = tested on: HPV16 upstream regulatory region (URR); experiment: HPV16 upstream regulatory region luciferase reporter transfected into CaSki cells; assay type: cell-based; conditions: 24 hours, 0-25 μM, FIG. 1
Experimental: HPV16 upstream regulatory region (URR) ligated to luciferase gene transfected into CaSki cells is incubated for 24 hours with ciglitazone and with 15d-PGJ2 (in each case, concentration of 0 μM, 5 μM, 10 μM, 15 μM, 20 μM and 25 μM). […] Note that cells contain endogenous activator that drives expression of E7, and ciglitazone and 15d-PGJ2 are shown to inhibit the activation.

HPV16 [6] = experiment: Treatment of patient with metastasized cervical cancer; assay type: in vivo, human; conditions: 50 mg orally three times a day for 12 months plus radiation therapy after hysterectomy
Experimental: A person seeks gynecologic evaluation because of pelvic pain. On pelvic examination, a cervical mass is detected. […] The patient undergoes a hysterectomy along with resection of regional lymph nodes. […] HPV16 is detected. The patient is treated with a course of radiation therapy plus indomethacin 50 mg orally three times a day for 12 months. […] The indomethacin is discontinued.

Compound	levels of HPV16 E6 mRNA (Northern blot) (HPV16 E6 mRNA)	levels of HPV16 E7 protein (Western blot) (HPV16 E7 protein)	EGF-mediated induction of HPV16 E7 (Northern blot, mRNA) (HPV16 E7 mRNA [2])	also measured
NS(=O)(=O)c1ccc(-n2nc(C(F)(F)F)cc2-c2ccc(Cl)cc2)cc1 [SC-236]	dose dependent suppression	dose dependent suppression	–	–
Oc1ccc(C=Cc2cc(O)cc(O)c2)cc1 [resveratrol]	–	–	–	HPV16 E6 mRNA (Northern blot) (HPV16 E6 mRNA): downregulation; cutaneous warts after topical treatment [1]: same results
CS(=O)(=O)c1ccc(-c2cc(Br)sc2-c2ccc(F)cc2)cc1 [DuP-697, 5-bromo-2-(4-fluorophenyl)-3-(4-(methylsulfonyl)phenyl)thiophene]	suppression	suppression	–	–
COc1ccc2c(c1)c(CC(=O)NCCc1ccccc1)c(C)n2C(=O)c1ccc(Cl)cc1 [N-(2-phenylethyl)-indomethacin amide]	dose dependent suppression	dose dependent suppression	–	–
NS(=O)(=O)c1ccc(-n2nc(C(F)(F)F)cc2-c2ccccc2)cc1 [4-[5-Phenyl-3-(trifluoromethyl)-1H-pyrazol-1-yl]benzenesulfonamide]	suppression	suppression	–	–
CSc1ccc(/C=C2/C(C)=C(CC(=O)O)c3cc(F)ccc32)cc1 [sulindac sulfide]	–	–	inhibition	EGF-mediated induction of HPV16 E7 mRNA (Northern blot) (HPV16 E7 mRNA [2]): inhibition
Cc1ccc(-c2cc(C(F)(F)F)nn2-c2ccc(S(N)(=O)=O)cc2)cc1 [Celebrex™, 4-[5-(4-methylphenyl)-3-(trifluoromethyl)-1H-pyrazol-1-yl]benzenesulfonamide]	dose dependent suppression	dose dependent suppression	–	–
CS(=O)(=O)c1ccc(C2=C(c3ccccc3)C(=O)OC2)cc1 [Vioxx™, 3-(phenyl)-4-(4-(methylsulfonyl)phenyl)-2-(5H)-furanone]	–	–	–	cervical intraepithelial neoplasia on repeat biopsy (HPV16 [3]): no further evidence of cervical intraepithelial neoplasia
CCCCCCCOC(=O)Cc1c(C)n(C(=O)c2ccc(Cl)cc2)c2ccc(OC)cc12 [Indomethacin heptyl ester]	dose dependent suppression	dose dependent suppression	–	–
CS(=O)(=O)Nc1ccc([N+](=O)[O-])cc1OC1CCCCC1 [NS-398, N-[2-(cylohexyloxy)-4-nitrophenyl]-methanesulfonamide]	–	–	–	levels of HPV16 E7 mRNA (Northern blot) (HPV16 E7 mRNA [4]): dose dependent suppression
COc1cc(/C=C/C(=O)CC(=O)/C=C/c2ccc(O)c(OC)c2)ccc1O [curcumin]	–	–	–	HPV16 E6 mRNA (Northern blot) (HPV16 E6 mRNA): downregulation
COc1ccc(-n2nc(C(F)(F)F)cc2-c2ccc(Cl)cc2)cc1 [SC-560, 5-(4-chlorophenyl)-1-(4-methoxyphenyl)-3-(trifluoromethyl)-1H-pyrazole]	suppression	suppression	–	cervical intraepithelial neoplasia on repeat biopsy (HPV16 [3]): no evidence of cervical intraepithelial neoplasia
CC1=C(CC(=O)O)c2cc(F)ccc2/C1=C\c1ccc(S(C)(=O)=O)cc1 [sulindac sulfone]	–	–	inhibition	–
CC(C)Cc1ccc(C(C)C(=O)O)cc1 (stereo not shown) [ibuprofen]	–	–	not	–
CN1C(C(=O)Nc2ccccn2)=C(O)c2ccccc2S1(=O)=O [piroxicam]	–	–	not	–
COc1ccc2cc([C@H](C)C(=O)O)ccc2c1 [naproxen]	–	–	inhibition	–
CCCCC/C=C/C=C1/C(=O)C=C[C@@H]1C/C=C\CCCC(=O)O [15d-PGJ2, 15-deoxy-Δ12,14-prostaglandin J2]	–	–	inhibition	HPV16 E6 mRNA (Northern blot) (HPV16 E6 mRNA): downregulation; EGF-mediated induction of HPV16 E7 mRNA (Northern blot) (HPV16 E7 mRNA [2]): inhibition; luciferase activity of HPV16 upstream regulatory region [5]: dose dependent inhibition
CS(=O)(=O)c1ccc(-n2nc(C(F)(F)F)cc2-c2ccc(F)cc2)cc1 [SC-58125, 4-[5-(4-fluorophenyl)-3-(trifluoromethyl)-1H-pyrazol-1-yl]benzenemethylsulfone]	suppression	suppression	–	–
COc1ccc2c(c1)c(CC(=O)O)c(C)n2C(=O)c1ccc(Cl)cc1 [indomethacin]	–	–	inhibition	repeat CAT scan, cervical cancer (HPV16 [6]): no evidence of disease
CC(=O)Oc1ccccc1C(=O)O [aspirin]	–	–	not	–
O=C(O)c1ccccc1Nc1cccc(C(F)(F)F)c1 [flufenamic acid]	–	–	inhibition	–
COc1ccc2cc([C@H](C)C(=O)O)ccc2c1 [S-naproxen]	–	–	not	–
